Columns and labels:
C57Bl/6J mice = test: Pre-pulse Inhibition (PPI) of startle in mice; type: in vivo; set-up: key: −: No change in PPI; +: Significant increase in PPI at one pre-pulse intensity (P value < 0.05); ++: Significant increase in PPI at two pre-pulse intensities (P value < 0.05); +++: Significant increase in PPI at three pre-pulse intensities (P value < 0.05); settings: 30 min prior to PPI test, vs. vehicle
Description: (§1) Anti-psychotic like activity of the compounds was evaluated […] using the PCP hyperactivity (in rats) and Pre-Pulse Inhibition (PPI; in mice) models of schizophrenia.
Animals—PPI: Male C57Bl/6J mice from Jackson Laboratories (Bar Harbor, Me.) were used in these studies. Upon receipt, mice were assigned unique identification numbers (tail marked) and were group housed with 4 mice per cage in OptiMICE ventilated cages. All animals remained housed in groups of four during the remainder of the study. All mice were acclimated to the colony room for at least one week prior to testing. During the period of acclimation, mice were examined on a regular basis, handled, and weighed to assure adequate health and suitability. Animals were maintained on a 12/12 light/dark cycle. The room temperature was maintained between 20 and 23° C. with a relative humidity maintained between 30% and 70%. Chow and water were provided ad libitum for the duration of the study. In each test, animals were randomly assigned across treatment groups.
The acoustic startle is an unconditioned reflex response to an external auditory stimulus. Prepulse inhibition of startle (PPI) refers to the reduction in the startle response caused by the presentation of a low-intensity auditory stimulus prior to the startle stimulus. The PPI paradigm is used for the study of schizophrenia and antipsychotic action due to the similarities between the results from human and rodent studies. PPI has been used as a tool for the assessment of deficiencies in sensory-motor gating observed in schizophrenia and to screen for potential antipsychotic drugs. Various psychotomimetic drugs such as PCP can disrupt PPI. In mice, antipsychotic drugs such as clozapine can reverse the disruption of PPI induced by PCP.
Mice were placed in the PPI chambers (Med Associates) for a 5 min session of white noise (70 dB) habituation. After the habituation period the test session was initiated. The session started with a habituation block of 6 presentations of the startle stimulus alone, followed by 10 PPI blocks, each of which consisted of 6 different types of trials. Trial types were: ‘null’ (no stimuli), ‘startle’ (120 dB), ‘startle plus prepulse’ (4, 8 and 12 dB over background noise, i.e., 74, 78 or 82 dB) and ‘prepulse’ (82 dB). Trial types were presented in a random order within each block. Each trial started with a 50 ms stimulus-free period during which baseline movements were recorded. This was followed by a subsequent 20 ms period during which the prepulse stimulus was presented and responses to the prepulse measured. After a further 100 ms period, the startle stimulus was presented for 40 ms and responses recorded for 100 ms from startle onset. Responses were sampled every ms. The inter-trial interval was variable with an average of 15 s (range from 10 to 20 s). In ‘startle’ trials the basic auditory startle response was measured. The basic startle response was calculated as the mean startle response of all ‘startle’ trials (i.e., excluding the first habituation block). In ‘startle plus prepulse’ trials the degree of inhibition of the normal startle was calculated and expressed as a percentage of the basic startle response.
Mice were treated with vehicle, haloperidol (1 mg/kg; i.p) or test compound 30 min prior to PPI test. The PPI enclosures were cleaned following each test.

Sprague Dawley rats = test: PCP-induced hyperactivity in rats; type: in vivo; set-up: key: −: No inhibition of PCP hyperactivity; +: Significant inhibition of PCP hyperactivity (P value < 0.05); settings: vs. vehicle + PCP
Description: as §1
Animals: PCP Hyperactivity: Male Sprague Dawley rats from Harlan (Indianapolis, Ind.) were used in these studies. Upon receipt, rats were assigned unique identification numbers and were group housed with 3 rats per cage in polycarbonate cages with micro-isolator filter tops. All rats were examined, handled, and weighed prior to initiation of the study to assure adequate health and suitability. The rats were maintained at 12/12 light/dark cycle with lights on at 7:00 am EST. The room temperature was maintained between 20 and 23° C. with a relative humidity maintained around 50%. Chow and water were provided ad libitum for the duration of the study. For each test, animals were randomly assigned across treatment groups.
The test chambers were Plexiglas rectangular chambers (24×45 cm) that fit inside two steel frames (9.5×18 inches) and were fitted with two-dimensional 4×8 beam grids to monitor horizontal and vertical locomotor activity (Hamilton Kinder, San Diego, Calif.). The analysis was configured to divide the open field of the chamber into a center and a periphery zone. Distance traveled was measured from horizontal beam breaks as the rat traveled whereas rearing activity was measured from vertical beam breaks.
Rats were administered with vehicle, test compound, or risperidone (0.5-1 mg/kg; i.p) and placed in the test chambers for 30 min measurement of baseline activity. Rats were then injected with either water or PCP (2.5 mg/kg; s.c) and placed back in the test chambers for a 60-minute session. At the end of each test session the chambers were thoroughly cleaned.

[1] = 3 mg/kg Compound + PCP (2.5 mg/kg s.c.)
[2] = 10 mg/kg Compound + PCP (2.5 mg/kg s.c.)
[3] = 30 mg/kg Compound + PCP (2.5 mg/kg s.c.)

Row | Structure (SMILES) | Effect on Pre-pulse Inhibition (PPI) (C57Bl/6J mice; 3 mg/kg) | Effect on Pre-pulse Inhibition (PPI) (C57Bl/6J mice; 10 mg/kg) | Effect on Pre-pulse Inhibition (PPI) (C57Bl/6J mice; 30 mg/kg) | Total Distance Traveled (cm), PCP-induced hyperactivity (Sprague Dawley rats; [1]) | Total Distance Traveled (cm), PCP-induced hyperactivity (Sprague Dawley rats; [2]) | Total Distance Traveled (cm), PCP-induced hyperactivity (Sprague Dawley rats; [3]) | Total Distance Traveled (cm), PCP-induced hyperactivity (Sprague Dawley rats; 100 mg/kg Compound + PCP (2.5 mg/kg s.c.))
1 | Cc1sc2ccccc2c1C1C=CN=CN1 (stereo not drawn) [Compound 3] | + | + | +++ | − | + | + | 
2 | Cl.Fc1sc2ccccc2c1C1C=CN=CN1 (stereo not drawn) [Compound 15] | − | + | ++ | − | − | − | 
3 | Cc1c(C2C=CN=CN2)sc2ccccc12.Cl (stereo not drawn) [Compound 20] | − | − | − | + | − | + | 
4 | Cc1cc(C2C=CN=CN2)cs1.Cl (stereo not drawn) [Compound 21] | − | − | − |  | − | − | −
5 | Fc1ccc2c(c1)N=CNC2c1c(F)sc2ccccc12 (stereo not drawn) [Compound 239] | − | − | +++ | + (increase) | + (increase) | + (increase) | 
